Results from publication PMC4222540 (Biochemistry, 2014).
Numbering of substitutions follows the chain as printed.

Columns and labels:
cPAH D139N [1] = target: T1, cPAH D139N (Chromobacterium violaceum, UniProt P30967, D139N); assay: Steady-state kinetics of phenylalanine hydroxylation; format: biochemical
T1 sequence (P30967 1-297 D139N): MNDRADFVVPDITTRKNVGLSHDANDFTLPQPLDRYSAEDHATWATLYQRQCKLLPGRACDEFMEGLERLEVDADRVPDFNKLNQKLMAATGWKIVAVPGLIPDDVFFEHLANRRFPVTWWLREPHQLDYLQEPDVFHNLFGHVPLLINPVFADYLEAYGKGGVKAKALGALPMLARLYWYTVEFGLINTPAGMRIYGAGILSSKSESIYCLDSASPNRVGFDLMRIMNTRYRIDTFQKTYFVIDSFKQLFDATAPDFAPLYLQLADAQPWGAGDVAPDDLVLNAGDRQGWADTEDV

cPAH D139E [2] = target: T2, cPAH D139E (Chromobacterium violaceum, UniProt P30967, D139E); assay: ITC, L-Phe binding to iron-reconstituted enzyme with excess BH4
T2 sequence (P30967 1-297 D139E): T1 sequence (P30967 1-297 D139N) with N139E

cPAH D139K = target: T3, cPAH D139K (Chromobacterium violaceum, UniProt P30967, D139K); assay: as above
T3 sequence (P30967 1-297 D139K): T1 sequence (P30967 1-297 D139N) with N139K

cPAH D139E [3] = target: T2, cPAH D139E; assay: Steady-state kinetics of phenylalanine hydroxylation; format: biochemical
cPAH D139A [4] = target: T4, cPAH D139A (Chromobacterium violaceum, UniProt P30967, D139A); assay: ITC, L-Phe binding to iron-reconstituted enzyme with excess BH4
T4 sequence (P30967 1-297 D139A): T1 sequence (P30967 1-297 D139N) with N139A

wild-type cPAH = target: T5, wild-type cPAH (Chromobacterium violaceum, UniProt P30967); details: cited from earlier work
T5 sequence (P30967 1-297): T1 sequence (P30967 1-297 D139N) with N139D

cPAH D139A [5] = target: T4, cPAH D139A; assay: Steady-state kinetics of phenylalanine hydroxylation; format: biochemical
cPAH D139N [6] = target: T1, cPAH D139N; assay: ITC, L-Phe binding to iron-reconstituted enzyme with excess BH4
[7] = D139E, 1 mM Phe into 50 μM protein, 50 μM FeSO4, 200 μM BH4, anaerobic, 25 °C
[8] = D139K, 1 mM Phe into 50 μM protein, 50 μM FeSO4, 200 μM BH4, anaerobic, 25 °C
[9] = D139A, 1 mM Phe into 50 μM protein, 50 μM FeSO4, 200 μM BH4, anaerobic, 25 °C
[10] = D139N, 1 mM Phe into 50 μM protein, 50 μM FeSO4, 200 μM BH4, anaerobic, 25 °C

With `N[C@@H](Cc1ccccc1)C(=O)O` [L-Phe, phenylalanine] the “fold decrease in kcat/KM for phenylalanine vs wild type” value (“fold decrease in kcat/KM” below) (cPAH D139N [1]) was 17 fold, the Kd (cPAH D139E [2]) was 55 ± 18 µM and the “N (ITC stoichiometry)” value (cPAH D139E [2]; [7]) was 0.6. The ΔH (cPAH D139E [2]; [7]) was “–13.2 ± 6.0 kcal mol^–1”, the ΔS (cPAH D139E [2]; [7]) was “–25 cal mol^–1” and the Kd (cPAH D139K) was 31 ± 5 µM. For the same compound, the “N (ITC stoichiometry)” value (cPAH D139K; [8]) was 0.8, the ΔH (cPAH D139K; [8]) was “–9.4 ± 1.3 kcal mol^–1” and the ΔS (cPAH D139K; [8]) was “–11 cal mol^–1”. The “fold decrease in kcat/KM” value (cPAH D139E [3]) was 7 fold, the Kd (cPAH D139A [4]) was 39 ± 12 µM and the “N (ITC stoichiometry)” value (cPAH D139A [4]; [9]) was 1. For the same compound, the ΔH (cPAH D139A [4]; [9]) was “–10.5 ± 1.9 kcal mol^–1”, the ΔS (cPAH D139A [4]; [9]) was “–15 cal mol^–1” and the Kd (wild-type cPAH) was 37 ± 0.3 µM. The “N (ITC stoichiometry)” value (wild-type cPAH) was 0.8, the ΔH (wild-type cPAH) was “–7.9 ± 0.8 kcal mol^–1” and the ΔS (wild-type cPAH) was “–6 cal mol^–1”. The “fold decrease in kcat/KM” value (cPAH D139A [5]) was 81 fold, the Kd (cPAH D139N [6]) was 37 ± 3.7 µM and the “N (ITC stoichiometry)” value (cPAH D139N [6]; [10]) was 0.9. For the same compound, the ΔH (cPAH D139N [6]; [10]) was “–8.5 ± 0.7 kcal mol^–1” and the ΔS (cPAH D139N [6]; [10]) was “–8 cal mol^–1”.
